This is an account of results in patent US20250145631A1, “HETEROCYCLIC COMPOUND ACTING ON G12D MUTANT KRAS PROTEIN” (Astellas Pharma Inc., priority 2022, published 2025).

Common to all, as to type: cell-based
One assay concerns the target T1, KRAS G12D (Homo sapiens, UniProt P01116, G12D).
T1 construct: host or cells: AsPC-1 (human pancreatic cancer line)
The experiment in a line: KRAS degradation activity by Cell ELISA in AsPC-1 cells (Test Example 1). The following applies: Cell ELISA; for Dmax: ASPC1, overnight treatment, read-out: Dmax (degradation rate at the concentration showing highest degradation); for DC50: overnight treatment, read-out: DC50 (50% degradation concentration of KRAS). The procedure: The KRAS degradation activity of test compounds was evaluated by measuring the expression levels of KRAS G12D by Cell ELISA.
AsPC-1 cells were seeded at 20 μL per well on 384-well plates (from Greiner bio-one) to give 2.0×10^4 cells per well. As for the cell culture conditions, RPMI 1640 (from Sigma-Aldrich) medium containing 10% fetal bovine serum (from Cytiva) was used in the presence of 5% CO2 at 37° C.
The next day, the test compounds (10 points having final concentrations in the range of 10 μM to 0.3 nM) and DMSO (from FUJIFILM Wako Pure Chemical Corporation), which was the solvent for the test compounds, as a negative control were diluted 500-fold with a fresh medium and were added at 20 μL per well. The cells were cultured overnight. The next day, the culture supernatant was removed, and 4% paraformaldehyde phosphate buffer (from FUJIFILM Wako Pure Chemical Corporation) was added at 20 μL per well. The plates were allowed to stand for 30 minutes at room temperature to thus immobilize the cells. Then, the supernatant was removed, and 0.1% Triton X-100 (from Amersham Biosciences)-containing Phosphate buffered saline (PBS; from FUJIFILM Wako Pure Chemical Corporation) was added at 20 μL per well. After allowing to stand for 10 minutes at room temperature, the supernatant was removed. PBS was added at 25 μL per well, and the supernatant was removed to thus wash each well. The washing was performed twice in total. Next, the supernatant was removed, and 0.5% sodium dodecyl sulfate (SDS; from Invitrogen)-containing PBS was added at 20 μL per well. After allowing to stand at room temperature for 10 minutes, the supernatant was removed by a centrifugal operation (using a centrifugal dehydrator machine, the supernatant was removed by the same method hereinafter). PBS was added at 25 μL per well, and the supernatant was removed to thus wash each well. The washing was performed twice in total. The supernatant was removed, and blocking solution (Intercept Blocking Buffer; from Li—COR Biosciences) was added at 20 μL per well. After allowing to stand for 30 minutes at room temperature, the supernatant was removed, and a solution obtained by diluting anti-β-actin antibody (Anti-beta Actin antibody [mAbcam 8226]-Loading Control; from abcam) 1,000-fold with blocking solution and a solution obtained by diluting anti-Ras (G12D Mutant Specific) antibody (Ras (G12D Mutant Specific) (D8H7) Rabbit mAb #14429; from Cell Signaling Technology) and anti-β-actin antibody (from abcam) 1,000-fold with blocking solution were respectively added to positive control wells and the other wells at 15 μL per well as a primary antibody. The plates were allowed to stand overnight at 4° C.
The next day, the supernatant was removed. PBS was added at 25 μL per well, and the supernatant was removed to thus wash each well. The washing was performed twice in total. The supernatant was removed, and a solution obtained by diluting Donkey anti-Mouse IgG H&L (IRDye 680RD) (from Li—COR Biosciences) and Goat anti-Rabbit IgG H&L (IRDye 800CW) (from Li—COR Biosciences) 1,000-fold with blocking solution was added at 15 μL per well as a secondary antibody. A solution obtained by diluting Donkey anti-Mouse IgG H&L (IRDye 680RD) (from Li—COR Biosciences) 1,000-fold with blocking solution was added to a positive control well as a secondary antibody. After allowing to stand for 1 hour at room temperature, the supernatant was removed. PBS was added at […], and the supernatant was removed to thus wash each well. The washing was performed twice in total. After removing the supernatant, the plates were dried with air at room temperature for 2 hours or more, and the 700 nm and 800 nm fluorescent signals were measured with Aerius (from Li—COR Biosciences). […]
A general note: In an ELISA, binding on a coated surface is turned into a signal by an enzyme label.

Assay [1] has as its system human G12D mutant KRAS-positive pancreatic cancer line AsPC-1. As to the kind of experiment: Non-anchorage-dependent cell growth inhibitory effect, spheroid 3D culture (Test Example 3). Particulars: ASPC1, 144 h, AsPC-1 spheroid 3D culture, 6 days, CellTiter Glo 2.0, read-out: IC50 (non-anchorage-dependent cell growth inhibition). The procedure: The non-anchorage-dependent cell growth inhibitory effect of test compounds was evaluated by spheroid 3D cell culture.
AsPC-1 cells were seeded on low-cell-adhesive round bottom 384-well plates (PrimeSurface: from Sumitomo Bakelite) at 20 μL (or […])/well to give 5×10^2 cells per well. As for the cell culture conditions, RPMI 1640 medium containing 10% fetal bovine serum was used in the presence of 5% CO2 at 37° C.
The next day, the test compounds (10 points or 6 points having final concentrations in the range of 10 μM to 0.3 nM) and DMSO, which was the solvent for the test compounds, as a negative control were diluted 500-fold (or 100-fold) with a fresh medium and were added at 20 μL (or […]) per well. After culturing in the presence of 5% C02 at 37° C. for 6 days, CellTiter Glo 2.0 (from Promega) was added at 20 μL per well. After stirring with a plate mixer (from FINEPCR) at normal temperature for 1 hour, the luminescent signals were measured with ARVO X3 (from PerkinElmer).
With the signaling value in treatment with DMSO taken as 100% and with the signaling value in the medium alone without cells taken as 0%, the 50% inhibitory concentration values (IC50) were calculated by Sigmoid-Emax nonlinear regression analysis. The calculated 50% inhibition represents the inhibition at the highest concentration evaluated (10 μM) for a compound that exceeds the concentration in the evaluation range.
(§1) In the tables presented below, Ex represents Example No. The IC50 of Ex. 13, Ex. 15, and Ex. 16 were calculated using the molecular weights as tetrahydrochloride, and the IC50 of Ex. 14 was calculated using the molecular weight as trihydrochloride.
A general note: Cellular ATP, detected with luciferase, serves as a proxy for viable cell number.

Assay [2] relates to phosphorylation of ERK (Thr202/Tyr204). As to the kind of experiment: ERK phosphorylation inhibitory effect by Cell ELISA in AsPC-1 cells (Test Example 2). The following applies: Homo sapiens, ASPC1, overnight treatment, Cell ELISA, read-out: IC50 (ERK phosphorylation inhibition). On the procedure: The ERK phosphorylation inhibitory effect of test compounds was evaluated by measuring phosphorylation of threonine 202 (Thr202) and tyrosine 204 (Tyr204) of ERK located downstream of the KRAS signal by Cell ELISA.
AsPC-1 cells were seeded on 384-well plates at 20 µL/well to give 2.0×10^4 cells per well. As for the cell culture conditions, RPMI 1640 medium containing 10% fetal bovine serum was used in the presence of 5% CO2 at 37° C.
The next day, the test compounds (10 points having final concentrations in the range of 10 μM to 0.3 nM), trametinib (MEK inhibitor) of a final concentration of […] as positive control and DMSO, which was the solvent for the test compounds, as negative control were diluted 500-fold with a fresh medium and were added at 20 μL per well. The cells were cultured overnight. After culturing, 30% glyoxal solution (40% glyoxal [from Nacalai Tesque]was diluted with PBS) was quickly added at 30 μL per well, and the plates were allowed to stand for 120 minutes at room temperature to thus immobilize the cells. Then, the plates were centrifuged to remove the supernatant (using a centrifugal dehydrator machine, the supernatant was removed by the same method hereinafter), and 0.10% Triton X-100-containing PBS was added at 20 μL per well. After allowing to stand for 10 minutes at room temperature, the supernatant was removed, and the same operation was further repeated. Next, 0.5% SDS-containing PBS was added at 20 μL per well, and after allowing to stand at room temperature for 30 minutes, the supernatant was removed. Subsequently, blocking solution (Intercept Blocking Buffer) was added at 20 μL per well, and the plates were allowed to stand for 1 hour at room temperature. The supernatant was removed, and an ERK (Thr202/Tyr204) phosphorylation antibody (Phospho-p44/42 MAPK (Erk 1/2) (Thr202/Tyr204) (D13.14.4E) XP Rabbit mAb; from Cell Signaling Technology) diluted 2,500-fold with blocking solution was added at 15 μL per well as a primary antibody. The plates were allowed to stand at 4° C. overnight.
The next day, the supernatant was removed. 0.05% Tween-20 (from Thermo Fisher Scientific)-containing PBS was added at 50 μL per well, and the supernatant was removed to thus wash each well. The washing was performed three times in total. After washing, Goat anti-Rabbit IgG H&L (IRDye 800CW) diluted 1,000-fold with blocking solution was added at 15 μL per well as a secondary antibody, and the plates were allowed to stand for 1 hour at room temperature. The supernatant was removed, and each well was washed three times with 0.05% Tween-20-containing PBS in the same manner as after the primary antibody reaction. After removing the supernatant, the plates were dried with air at room temperature for 3 hours or more, and the 800-nm fluorescent signals were measured with Aerius.
With the signaling value at the time of addition of DMSO taken as 100% and with the signaling value at the time of addition of […] trametinib taken as 0%, the 50% inhibitory concentration values (IC50) were calculated by Sigmoid-Emax nonlinear regression analysis. The calculated 50% inhibition represents the inhibition at the highest concentration evaluated (10 μM) for a compound that exceeds the concentration in the evaluation range.
as §1

As usually defined, the IC50 is the midpoint of a concentration-inhibition curve.

Molecules are shown by their SMILES.

T1 sequence (P01116 1-188 isoform P01116-2 G12D): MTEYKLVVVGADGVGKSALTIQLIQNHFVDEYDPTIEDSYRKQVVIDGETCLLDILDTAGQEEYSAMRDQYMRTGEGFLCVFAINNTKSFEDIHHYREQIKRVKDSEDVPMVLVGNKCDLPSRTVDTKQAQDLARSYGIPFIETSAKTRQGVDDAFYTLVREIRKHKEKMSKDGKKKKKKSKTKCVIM

On to `Cc1c(F)cc2[nH]ncc2c1-c1c(C2CC2)cc2c(N3C[C@@H]4C[C@H]3CN4)nc(OC3CCOCC3)nc2c1OCc1ccc(C(=O)N2CCN(Cc3ccc4c(N5CCC(=O)NC5=O)nn(C)c4c3)CC2)cc1` (atropisomer, axis not shown) [Example 13], for which, on KRAS G12D, the Dmax came to 66% and the DC50 was found to be 408 nM. Also, the IC50 in assay [1] is 1220 nM. In addition, in assay [2], the IC50 was 608 nM.

On to `Cc1c(F)cc2[nH]ncc2c1-c1c(C2CC2)cc2c(N3C[C@@H]4C[C@H]3CN4)nc(OC3CCOCC3)nc2c1OCc1ccc(C(=O)N2CC[C@H](N(C)Cc3ccc4c(N5CCC(=O)NC5=O)nn(C)c4c3)C2)cc1` (atropisomer, axis not shown) [Example 20], for which, at KRAS G12D, the Dmax was 78% and the DC50 worked out at 488 nM. Further, in assay [1], the IC50 is 884 nM. The IC50 in assay [2] was 1070 nM.

Take `Cc1c(F)cc2[nH]ncc2c1-c1c(C2CC2)cc2c(N3C[C@@H]4C[C@H]3CN4)nc(OC[C@@H]3CCCO3)nc2c1OCc1ccc(C(=O)N2CCN(Cc3ccc4c(c3)n(C)c(=O)n4C3CCC(=O)NC3=O)C[C@@H]2C)cc1` (stereo partly drawn) [Example 40]: on KRAS G12D, the Dmax was found to be 88% and the DC50 amounted to 23 nM. Further, in assay [1], the IC50 was 46 nM. Further, in assay [2], the IC50 is 30 nM.

For the compound `Cc1nc(OC2CCN(C(=O)c3ccc(COc4c(-c5c(C)c(F)cc6[nH]ncc56)c(C5CC5)cc5c(N6C[C@@H]7C[C@H]6CN7)nc(OC6CCOCC6)nc45)cc3)CC2)ccc1N1CCC(=O)NC1=O` (atropisomer, axis not shown) [Example 17], on KRAS G12D, the Dmax was determined as 52% and the DC50 was determined as 4270 nM. In addition, the IC50 in assay [1] was found to be 684 nM. The IC50 in assay [2] amounted to 1340 nM.

As to `Cc1c(F)cc2[nH]ncc2c1-c1c(C2CC2)cc2c(N3C[C@@H]4C[C@H]3CN4)nc(OC[C@H]3CCCO3)nc2c1OCc1ccc(C(=O)N2CCN(Cc3ccc4c(c3)n(C)c(=O)n4C3CCC(=O)NC3=O)C[C@@H]2C)cc1` (stereo partly drawn) [Example 37], the Dmax on KRAS G12D was found to be 87%. In addition, the DC50 on KRAS G12D was 30 nM. Further, the IC50 was 64 nM in assay [1] and 41 nM in assay [2].

With `CO[C@@H](C)COc1nc(O[C@@H]2CCNC2)c2cc(C3CC3)c(-c3c(C)c(F)cc4[nH]ncc34)c(OCc3ccc(C(=O)N4CCN(Cc5ccc6c(c5)n(C)c(=O)n6C5CCC(=O)NC5=O)C[C@@H]4C)cc3)c2n1` (stereo partly drawn) [Example 39], on KRAS G12D, the Dmax was determined as 83% and the DC50 came out at 22 nM. The IC50 in assay [1] turned out to be 52 nM. The IC50 in assay [2] is 30 nM.

As to `Cc1c(F)cc2[nH]ncc2c1-c1c(C2CC2)cc2c(N3C[C@@H]4C[C@H]3CN4)nc(O[C@H]3CCOC3)nc2c1OCc1ccc(C(=O)N2CCN(Cc3ccc4c(c3)n(C)c(=O)n4C3CCC(=O)NC3=O)C[C@@H]2C)cc1` (stereo partly drawn) [Example 41], at KRAS G12D, the Dmax amounted to 78% and the DC50 was 52 nM. In addition, the IC50 in assay [1] was 155 nM. Moreover, the half-maximal inhibitory concentration (IC50) in assay [2] was determined as 90 nM.

Consider `Cc1c(F)cc2[nH]ncc2c1-c1c(C2CC2)cc2c(N3C[C@@H]4C[C@H]3CN4)nc(OC3CCOCC3)nc2c1OCc1ccc(C(=O)N2CCN(Cc3ccc4c(N5CCC(=O)NC5=O)nn(C)c4n3)C[C@@H]2C)cc1` (atropisomer, axis not shown) [Example 24], for which, at KRAS G12D, the Dmax amounted to 78% and the DC50 was 297 nM. Further, the IC50 in assay [1] stood at 223 nM. Moreover, the half-maximal inhibitory concentration (IC50) in assay [2] came out at 231 nM.

`CO[C@@H](C)COc1nc(N(C)[C@H]2CCNC2)c2cc(C3CC3)c(-c3c(C)c(F)cc4[nH]ncc34)c(OCc3ccc(C(=O)N4CCN(Cc5ccc6c(c5)n(C)c(=O)n6C5CCC(=O)NC5=O)C[C@@H]4C)cc3)c2n1` (stereo partly drawn) [Example 18]: on KRAS G12D, the Dmax was determined as 77% and the DC50 amounted to 85 nM. The 50% inhibitory concentration (IC50) in assay [1] worked out at 217 nM. Further, in assay [2], the IC50 is 250 nM.
